Data from patent publication US20230085307A1, “PYRIDAZINONE COMPOUND AND HERBICIDE” (NISSAN CHEMICAL CORPORATION, priority 2019, published 2023).

These molecules were tested on green foxtail (assay: Test Example 5: herbicidal effect by foliage application, plastic box (Table 20, symbol G)). Details: foliage application, 320 g/ha, evaluated three weeks after application.
Type: in vivo, green foxtail (Setaria viridis)
How it was run: (§1)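 Plants were sown into sterilized diluvial soil under about 1.5 cm cover and kept in a greenhouse at 25° C. to 30° C. Fourteen days on, foliage received an even spray of the diluted emulsion. Herbicidal or crop effect was judged three weeks afterwards.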

Compound	herbicidal effect on G: green foxtail
Cc1nn(C)c(=O)c(-c2c(-c3ccc(C(F)(F)F)cc3)sc3ccc(Cl)cc23)c1O [2-111]	0 (Herbicidal rate of 5% or less (almost no effect))
CCCC(=O)Oc1c(C)nn(C)c(=O)c1-c1c(-c2ccccc2OC)sc2ccc(C)cc12 [2-139]	3 (Herbicidal rate of 40% or more and less than 70%)

Each molecule was assayed on Japanese bulrush (assay: Test Example 2: herbicidal activity, application during weed generation under submerged conditions (Table 17, symbol B)). Details: AAH 320 g/ha; application during weed generation, submerged conditions.
Type: in vivo, Japanese bulrush (Schoenoplectus juncoides)
How it was run: (§2)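 Steps: fill Wagner pots with alluvial soil; add water to give 4 cm depth; sow the species mixed; grow under glass at 25–30° C.; at 1–2 leaves apply water-diluted emulsion formulation to the water surface at a fixed herbicide amount; score after 3 weeks.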

Compound	herbicidal effect rating, B: Japanese bulrush
Cc1nn(C)c(=O)c(-c2c(-c3ccc(C(F)(F)F)cc3)sc3ccc(Cl)cc23)c1O [2-111]	1 (Herbicidal rate of 5% or more and less than 20%)
CCCC(=O)Oc1c(C)nn(C)c(=O)c1-c1c(-c2ccccc2OC)sc2ccc(C)cc12 [2-139]	3 (Herbicidal rate of 40% or more and less than 70%)

Each molecule was assayed on wild oat (assay: Test Example 4: herbicidal effect by soil treatment (Table 19, symbol I)). Details: amount of applied herbicide 320 g/ha.
Type: in vivo, wild oat (Avena fatua)
How it was run: (§3)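 Pre-emergence style soil spray: seeds under ~1.5 cm sterilized diluvial soil received a uniform coat of emulsion diluted to the predetermined herbicide amount. Greenhouse 25–30° C; readout at week three on previously defined criteria.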

Compound	I: wild oat, herbicidal effect rating
Cc1nn(C)c(=O)c(-c2c(-c3ccc(C(F)(F)F)cc3)sc3ccc(Cl)cc23)c1O [2-111]	0 (Herbicidal rate of 5% or less (almost no effect))
CCCC(=O)Oc1c(C)nn(C)c(=O)c1-c1c(-c2ccccc2OC)sc2ccc(C)cc12 [2-139]	0 (Herbicidal rate of 5% or less (almost no effect))

Each molecule was assayed on southern crabgrass (assay: Test Example 5: herbicidal effect by foliage application, plastic box (Table 20, symbol F)). Details: foliage application, 320 g/ha, evaluated three weeks after application.
Type: in vivo, southern crabgrass (Digitaria ciliaris)
How it was run: as §1

Compound	herbicidal effect on F: southern crabgrass
Cc1nn(C)c(=O)c(-c2c(-c3ccc(C(F)(F)F)cc3)sc3ccc(Cl)cc23)c1O [2-111]	0 (Herbicidal rate of 5% or less (almost no effect))
CCCC(=O)Oc1c(C)nn(C)c(=O)c1-c1c(-c2ccccc2OC)sc2ccc(C)cc12 [2-139]	3 (Herbicidal rate of 40% or more and less than 70%)

Each molecule was assayed on oval-leafed pondweed (assay: Test Example 1: herbicidal activity, application before weed generation under submerged conditions (Table 16, symbol C)). Details: 320 g/ha applied herbicide.
Type: in vivo, oval-leafed pondweed (Monochoria vaginalis)
How it was run: (§4)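 Emulsion formulation, water-diluted to set dose, was put onto the flooded surface (4 cm depth, alluvial soil) the same day weeds were sown and 2.5-leaf rice transplanted. After 3 weeks at 25-30 °C under glass, each species was rated 0 (≤5% kill) to 5 (≥90% kill).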

Compound	Herbicidal effect on C: oval-leafed pondweed (grade 0-5)
Cc1nn(C)c(=O)c(-c2c(-c3ccc(C(F)(F)F)cc3)sc3ccc(Cl)cc23)c1O [2-111]	0 (Herbicidal rate of 5% or less (almost no effect))
CCCC(=O)Oc1c(C)nn(C)c(=O)c1-c1c(-c2ccccc2OC)sc2ccc(C)cc12 [2-139]	1 (Herbicidal rate of 5% or more and less than 20%)

Each molecule was assayed on Japanese bulrush (assay: Test Example 1: herbicidal activity, application before weed generation under submerged conditions (Table 16, symbol B)). Details: 320 g/ha applied herbicide.
Type: in vivo, Japanese bulrush (Schoenoplectus juncoides)
How it was run: as §4

Compound	Herbicidal effect on B: Japanese bulrush (grade 0-5)
Cc1nn(C)c(=O)c(-c2c(-c3ccc(C(F)(F)F)cc3)sc3ccc(Cl)cc23)c1O [2-111]	3 (Herbicidal rate of 40% or more and less than 70%)
CCCC(=O)Oc1c(C)nn(C)c(=O)c1-c1c(-c2ccccc2OC)sc2ccc(C)cc12 [2-139]	3 (Herbicidal rate of 40% or more and less than 70%)

Each molecule was assayed on oval-leafed pondweed (assay: Test Example 2: herbicidal activity, application during weed generation under submerged conditions (Table 17, symbol C)). Details: AAH 320 g/ha; application during weed generation, submerged conditions.
Type: in vivo, oval-leafed pondweed (Monochoria vaginalis)
How it was run: as §2

Compound	herbicidal effect rating, C: oval-leafed pondweed
Cc1nn(C)c(=O)c(-c2c(-c3ccc(C(F)(F)F)cc3)sc3ccc(Cl)cc23)c1O [2-111]	0 (Herbicidal rate of 5% or less (almost no effect))
CCCC(=O)Oc1c(C)nn(C)c(=O)c1-c1c(-c2ccccc2OC)sc2ccc(C)cc12 [2-139]	0 (Herbicidal rate of 5% or less (almost no effect))

These molecules were tested on chickweed (assay: Test Example 4: herbicidal effect by soil treatment (Table 19, symbol P)). Details: amount of applied herbicide 320 g/ha.
Type: in vivo, common chickweed (Stellaria media)
How it was run: as §3

Compound	P: chickweed, herbicidal effect rating
Cc1nn(C)c(=O)c(-c2c(-c3ccc(C(F)(F)F)cc3)sc3ccc(Cl)cc23)c1O [2-111]	0 (Herbicidal rate of 5% or less (almost no effect))
CCCC(=O)Oc1c(C)nn(C)c(=O)c1-c1c(-c2ccccc2OC)sc2ccc(C)cc12 [2-139]	5 (Herbicidal rate of 90% or more (almost completely withered))

Each molecule was assayed on barnyard grass (assay: Test Example 5: herbicidal effect by foliage application, plastic box (Table 20, symbol H)). Details: foliage application, 320 g/ha, evaluated three weeks after application.
Type: in vivo, barnyard grass (Echinochloa crus-galli)
How it was run: as §1

Compound	herbicidal effect on H: barnyard grass
Cc1nn(C)c(=O)c(-c2c(-c3ccc(C(F)(F)F)cc3)sc3ccc(Cl)cc23)c1O [2-111]	4 (Herbicidal rate of 70% or more and less than 90%)
CCCC(=O)Oc1c(C)nn(C)c(=O)c1-c1c(-c2ccccc2OC)sc2ccc(C)cc12 [2-139]	4 (Herbicidal rate of 70% or more and less than 90%)

Each molecule was assayed on barnyard grass (assay: Test Example 4: herbicidal effect by soil treatment (Table 19, symbol H)). Details: amount of applied herbicide 320 g/ha.
Type: in vivo, barnyard grass (Echinochloa crus-galli)
How it was run: as §3

Compound	H: barnyard grass, herbicidal effect rating
Cc1nn(C)c(=O)c(-c2c(-c3ccc(C(F)(F)F)cc3)sc3ccc(Cl)cc23)c1O [2-111]	0 (Herbicidal rate of 5% or less (almost no effect))
CCCC(=O)Oc1c(C)nn(C)c(=O)c1-c1c(-c2ccccc2OC)sc2ccc(C)cc12 [2-139]	0 (Herbicidal rate of 5% or less (almost no effect))

What follows are molecules tested on green foxtail (assay: Test Example 4: herbicidal effect by soil treatment (Table 19, symbol G)). Details: amount of applied herbicide 320 g/ha.
Type: in vivo, green foxtail (Setaria viridis)
How it was run: as §3

Compound	G: green foxtail, herbicidal effect rating
Cc1nn(C)c(=O)c(-c2c(-c3ccc(C(F)(F)F)cc3)sc3ccc(Cl)cc23)c1O [2-111]	0 (Herbicidal rate of 5% or less (almost no effect))
CCCC(=O)Oc1c(C)nn(C)c(=O)c1-c1c(-c2ccccc2OC)sc2ccc(C)cc12 [2-139]	0 (Herbicidal rate of 5% or less (almost no effect))

What follows are molecules tested on wild oat (assay: Test Example 5: herbicidal effect by foliage application, plastic box (Table 20, symbol I)). Details: foliage application, 320 g/ha, evaluated three weeks after application.
Type: in vivo, wild oat (Avena fatua)
How it was run: as §1

Compound	herbicidal effect on I: wild oat
Cc1nn(C)c(=O)c(-c2c(-c3ccc(C(F)(F)F)cc3)sc3ccc(Cl)cc23)c1O [2-111]	0 (Herbicidal rate of 5% or less (almost no effect))
CCCC(=O)Oc1c(C)nn(C)c(=O)c1-c1c(-c2ccccc2OC)sc2ccc(C)cc12 [2-139]	1 (Herbicidal rate of 5% or more and less than 20%)

The molecules below were run on chickweed (assay: Test Example 5: herbicidal effect by foliage application, plastic box (Table 20, symbol P)). Details: foliage application, 320 g/ha, evaluated three weeks after application.
Type: in vivo, common chickweed (Stellaria media)
How it was run: as §1

Compound	herbicidal effect on P: chickweed
Cc1nn(C)c(=O)c(-c2c(-c3ccc(C(F)(F)F)cc3)sc3ccc(Cl)cc23)c1O [2-111]	5 (Herbicidal rate of 90% or more (almost completely withered))
CCCC(=O)Oc1c(C)nn(C)c(=O)c1-c1c(-c2ccccc2OC)sc2ccc(C)cc12 [2-139]	5 (Herbicidal rate of 90% or more (almost completely withered))

These molecules were tested on redroot pigweed (assay: Test Example 4: herbicidal effect by soil treatment (Table 19, symbol N)). Details: amount of applied herbicide 320 g/ha.
Type: in vivo, redroot pigweed (Amaranthus retroflexus)
How it was run: as §3

Compound	N: redroot pigweed, herbicidal effect rating
Cc1nn(C)c(=O)c(-c2c(-c3ccc(C(F)(F)F)cc3)sc3ccc(Cl)cc23)c1O [2-111]	5 (Herbicidal rate of 90% or more (almost completely withered))
CCCC(=O)Oc1c(C)nn(C)c(=O)c1-c1c(-c2ccccc2OC)sc2ccc(C)cc12 [2-139]	0 (Herbicidal rate of 5% or less (almost no effect))

The molecules below were run on persian speedwell (assay: Test Example 5: herbicidal effect by foliage application, plastic box (Table 20, symbol R)). Details: foliage application, 320 g/ha, evaluated three weeks after application.
Type: in vivo, Persian speedwell (Veronica persica)
How it was run: as §1

Compound	herbicidal effect on R: persian speedwell
Cc1nn(C)c(=O)c(-c2c(-c3ccc(C(F)(F)F)cc3)sc3ccc(Cl)cc23)c1O [2-111]	5 (Herbicidal rate of 90% or more (almost completely withered))
CCCC(=O)Oc1c(C)nn(C)c(=O)c1-c1c(-c2ccccc2OC)sc2ccc(C)cc12 [2-139]	4 (Herbicidal rate of 70% or more and less than 90%)

Each molecule was assayed on windgrass (assay: Test Example 5: herbicidal effect by foliage application, plastic box (Table 20, symbol L)). Details: foliage application, 320 g/ha, evaluated three weeks after application.
Type: in vivo, windgrass (Apera spica-venti)
How it was run: as §1

Compound	herbicidal effect on L: windgrass
Cc1nn(C)c(=O)c(-c2c(-c3ccc(C(F)(F)F)cc3)sc3ccc(Cl)cc23)c1O [2-111]	5 (Herbicidal rate of 90% or more (almost completely withered))
CCCC(=O)Oc1c(C)nn(C)c(=O)c1-c1c(-c2ccccc2OC)sc2ccc(C)cc12 [2-139]	0 (Herbicidal rate of 5% or less (almost no effect))
